According to patent US20240174634A1, “Aldehyde Dehydrogenase Inhibitors and Their Therapeutic Use” (priority 2020, published 2024):

How the values were obtained:
ALDH1A1 = target: T1, ALDH1A1 (Homo sapiens, UniProt P00352); assay: Selectivity biochemical assay, NAD(P)H-Glo Detection System
T1 construct: His-tag; made in house; host or cells: E. coli Rosetta (DE3)
T1 sequence (P00352 1-501): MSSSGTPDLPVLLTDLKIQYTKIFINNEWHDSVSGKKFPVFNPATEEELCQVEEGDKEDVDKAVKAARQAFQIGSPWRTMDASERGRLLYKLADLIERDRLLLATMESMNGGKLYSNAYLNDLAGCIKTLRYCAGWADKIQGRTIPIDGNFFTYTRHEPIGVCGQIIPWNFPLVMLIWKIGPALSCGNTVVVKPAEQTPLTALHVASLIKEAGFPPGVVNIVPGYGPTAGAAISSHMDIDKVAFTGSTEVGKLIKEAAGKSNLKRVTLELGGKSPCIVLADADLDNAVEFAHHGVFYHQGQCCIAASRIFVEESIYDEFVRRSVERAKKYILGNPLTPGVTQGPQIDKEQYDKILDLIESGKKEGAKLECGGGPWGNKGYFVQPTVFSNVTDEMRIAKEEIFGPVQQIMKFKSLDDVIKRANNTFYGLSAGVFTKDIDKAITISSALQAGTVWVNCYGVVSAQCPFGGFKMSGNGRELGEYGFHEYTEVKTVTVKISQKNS
How it was run: (§1)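 Recombinant full-length His-tagged human enzymes expressed in E. coli were pre-incubated 30 min at room temperature with compound (10-point, 3-fold series; top 20 μM for ALDH1A3, 250 μM for ALDH1A1/1A2). Propionaldehyde and NAD were then added at Km; NADH was read by NAD(P)H-Glo luminescence. Buffer: Tris (pH 7.6 for 1A1/1A2, 9.0 for 1A3), 1 mM TCEP, 0.01% Tween-20.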

ALDH1A2 = target: T2, ALDH1A2 (Homo sapiens, UniProt O94788); assay: as above
T2 construct: His-tag; made in house; host or cells: E. coli Rosetta (DE3)
T2 sequence (O94788 1-518): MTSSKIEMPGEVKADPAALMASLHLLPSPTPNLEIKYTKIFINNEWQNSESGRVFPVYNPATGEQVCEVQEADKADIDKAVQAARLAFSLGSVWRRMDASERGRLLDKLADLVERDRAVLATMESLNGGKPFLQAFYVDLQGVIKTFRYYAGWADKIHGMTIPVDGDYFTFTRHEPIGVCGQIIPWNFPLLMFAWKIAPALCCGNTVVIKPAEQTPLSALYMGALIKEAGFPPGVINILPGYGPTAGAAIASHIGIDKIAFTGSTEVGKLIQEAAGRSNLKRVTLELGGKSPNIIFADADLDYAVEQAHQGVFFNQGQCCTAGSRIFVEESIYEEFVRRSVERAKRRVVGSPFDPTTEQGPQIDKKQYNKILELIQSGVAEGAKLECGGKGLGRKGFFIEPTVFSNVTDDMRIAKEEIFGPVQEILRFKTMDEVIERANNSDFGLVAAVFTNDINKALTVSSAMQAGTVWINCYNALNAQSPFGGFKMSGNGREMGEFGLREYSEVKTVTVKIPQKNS
How it was run: as §1

| Compound | IC50 (ALDH1A1) | IC50 (ALDH1A2) |
| --- | --- | --- |
| O=C1CSc2cc(OCCN3CCCC3c3ccncc3)ccc2N1 (stereo not shown) [ALDHI-2029, 7-[2-[2-(4-pyridyl)pyrrolidin-1-yl]ethoxy]-4H-1,4-benzothiazin-3-one] | ≥ 100 µM | 10 to 100 µM |
| O=C1CCc2cc(NC(=O)c3ncsc3-c3cccc(F)c3)ccc2N1 [ALDHI-1014, 5-(3-fluorophenyl)-N-(2-oxo-3,4-dihydro-1H-quinolin-6-yl)thiazole-4-carboxamide] | ≥ 100 µM | 10 to 100 µM |
| O=C1CCc2cc(OCCn3ccnc3-c3ccccc3)ccc2N1 [ALDHI-2041, 6-[2-(2-phenylimidazol-1-yl)ethoxy]-3,4-dihydro-1H-quinolin-2-one] | ≥ 100 µM | 1 to 10 µM |
| O=C1CCc2cc(OCCN3CCCC3c3ccc(F)c(F)c3)ccc2N1 (stereo not shown) [ALDHI-2039, 6-[2-[2-(3,4-difluorophenyl)pyrrolidin-1-yl]ethoxy]-3,4-dihydro-1H-quinolin-2-one] | 1 to 10 µM | 1 to 10 µM |
| O=C1CCc2cc(OCCN3CCCC3c3ccccc3)ccc2N1 (stereo not shown) [ALDHI-2019, 6-[2-(2-phenylpyrrolidin-1-yl)ethoxy]-3,4-dihydro-1H-quinolin-2-one] | ≥ 100 µM | 0.1 to 1 µM |
| CCn1cc(C2CCCN2CCOc2ccc3c(c2)CCC(=O)N3)cn1 (stereo not shown) [ALDHI-2016, 6-[2-[2-(1-ethylpyrazol-4-yl)pyrrolidin-1-yl]ethoxy]-3,4-dihydro-1H-quinolin-2-one] | ≥ 100 µM | ≥ 100 µM |
| O=C1CCc2cc(NC(=O)c3sc(N4CCNCC4)nc3-c3cccc(F)c3)ccc2N1 [ALDHI-1005, 4-(3-fluorophenyl)-N-(2-oxo-3,4-dihydro-1H-quinolin-6-yl)-2-piperazin-1-yl-thiazole-5-carboxamide] | ≥ 100 µM | 10 to 100 µM |
| O=C1CCc2cc(OCCN3C(=O)CCC3c3ccccc3)ccc2N1 (stereo not shown) [ALDHI-2051, 6-[2-(2-oxo-5-phenyl-pyrrolidin-1-yl)ethoxy]-3,4-dihydro-1H-quinolin-2-one] | ≥ 100 µM | 1 to 10 µM |
| O=C1CCc2cc(OCCN3CCC3c3cccc(F)c3)ccc2N1 (stereo not shown) [ALDHI-2021, 6-[2-[2-(3-fluorophenyl)azetidin-1-yl]ethoxy]-3,4-dihydro-1H-quinolin-2-one] | ≥ 100 µM | 1 to 10 µM |
| O=C1CCc2cc(NC(=O)c3sccc3-c3cccc(F)c3)ccc2N1 [ALDHI-1022, 3-(3-fluorophenyl)-N-(2-oxo-3,4-dihydro-1H-quinolin-6-yl)thiophene-2-carboxamide] | 10 to 100 µM | 1 to 10 µM |
| O=C1CCc2cc(OCCN3CCCC3c3ccc(F)cc3)ccc2N1 (stereo not shown) [ALDHI-2003, 6-[2-[2-(4-fluorophenyl)pyrrolidin-1-yl]ethoxy]-3,4-dihydro-1H-quinolin-2-one] | ≥ 100 µM | 1 to 10 µM |
| O=C1COc2cc(NC(=O)c3scnc3-c3cccc(F)c3)ccc2N1 [ALDHI-1016, 4-(3-fluorophenyl)-N-(3-oxo-4H-1,4-benzoxazin-7-yl)thiazole-5-carboxamide] | ≥ 100 µM | 1 to 10 µM |
| O=C1CCc2cc(NC(=O)c3scnc3-c3cccs3)ccc2N1 [ALDHI-1023, N-(2-oxo-3,4-dihydro-1H-quinolin-6-yl)-4-(2-thienyl)thiazole-5-carboxamide] | ≥ 100 µM | 0.1 to 1 µM |
| CN(CCOc1ccc2c(c1)CCC(=O)N2)C(=O)c1cccc(F)c1 [ALDHI-3008, 3-fluoro-N-methyl-N-[2-[(2-oxo-3,4-dihydro-1H-quinolin-6-yl)oxy]ethyl]benzamide] | ≥ 100 µM | 1 to 10 µM |
| O=C1COc2cc(OCCN3CCCC3c3cccc(F)c3)ccc2N1 (stereo not shown) [ALDHI-2009, 7-[2-[2-(3-fluorophenyl)pyrrolidin-1-yl]ethoxy]-4H-1,4-benzoxazin-3-one] | ≥ 100 µM | 1 to 10 µM |
| O=C1CCc2cc(OCCn3nccc3-c3cccc(F)c3)ccc2N1 [ALDHI-2023, 6-[2-[5-(3-fluorophenyl)pyrazol-1-yl]ethoxy]-3,4-dihydro-1H-quinolin-2-one] | ≥ 100 µM | < 0.1 µM |
| C[C@@H](c1ccccc1)N(CCO)CCOc1ccc2c(c1)CCC(=O)N2 [ALDHI-3007, 6-[2-[2-hydroxyethyl-[(1S)-1-phenylethyl]amino]ethoxy]-3,4-dihydro-1H-quinolin-2-one] | 10 to 100 µM | 1 to 10 µM |
| O=C1CCc2cc(NC(=O)c3ocnc3-c3cccc(F)c3)ccc2N1 [ALDHI-1019, 4-(3-fluorophenyl)-N-(2-oxo-3,4-dihydro-1H-quinolin-6-yl)oxazole-5-carboxamide] | ≥ 100 µM | ≥ 100 µM |
| O=C1CCc2cc(OCCN3CCCC3c3ccncc3)ccc2N1 (stereo not shown) [ALDHI-2004, 6-[2-[2-(4-pyridyl)pyrrolidin-1-yl]ethoxy]-3,4-dihydro-1H-quinolin-2-one] | ≥ 100 µM | 10 to 100 µM |
| O=C1CCc2cc(OCCN3CCCC3c3cccnc3)ccc2N1 (stereo not shown) [ALDHI-2005, 6-[2-[2-(3-pyridyl)pyrrolidin-1-yl]ethoxy]-3,4-dihydro-1H-quinolin-2-one] | ≥ 100 µM | 10 to 100 µM |
| Cc1ccc(C2CCCN2CCOc2ccc3c(c2)CCC(=O)N3)cc1 (stereo not shown) [ALDHI-2010, 6-[2-[2-(p-tolyl)pyrrolidin-1-yl]ethoxy]-3,4-dihydro-1H-quinolin-2-one] | ≥ 100 µM | ≥ 100 µM |
| Cn1cc(C2CCCN2CCOc2ccc3c(c2)SCC(=O)N3)cn1 (stereo not shown) [ALDHI-2026, 7-[2-[2-(1-methylpyrazol-4-yl)pyrrolidin-1-yl]ethoxy]-4H-1,4-benzothiazin-3-one] | ≥ 100 µM | ≥ 100 µM |
| O=C1CCc2cc(OCCN3CC(F)(F)CC3c3cccc(F)c3)ccc2N1 (stereo not shown) [ALDHI-2053, 6-[2-[4,4-difluoro-2-(3-fluorophenyl)pyrrolidin-1-yl]ethoxy]-3,4-dihydro-1H-quinolin-2-one] | ≥ 100 µM | 1 to 10 µM |
| O=C1CSc2cc(OCCN3CCCC3c3ccccn3)ccc2N1 (stereo not shown) [ALDHI-2027, 7-[2-[2-(2-pyridyl)pyrrolidin-1-yl]ethoxy]-4H-1,4-benzothiazin-3-one] | ≥ 100 µM | 10 to 100 µM |
| O=C1CCc2cc(NC(=O)c3sc(N4CC(O)C4)nc3-c3cccc(F)c3)ccc2N1 [ALDHI-1004, 4-(3-fluorophenyl)-2-(3-hydroxyazetidin-1-yl)-N-(2-oxo-3,4-dihydro-1H-quinolin-6-yl)thiazole-5-carboxamide] | ≥ 100 µM | ≥ 100 µM |
| CC1Oc2cc(OCCN3CCCC3c3cccc(F)c3)ccc2NC1=O (stereo not shown) [ALDHI-2044, 7-[2-[2-(3-fluorophenyl)pyrrolidin-1-yl]ethoxy]-2-methyl-4H-1,4-benzoxazin-3-one] | ≥ 100 µM | 10 to 100 µM |
| Cc1cccc(-c2ncsc2C(=O)Nc2ccc3c(c2)CCC(=O)N3)c1 [ALDHI-1013, 4-(m-tolyl)-N-(2-oxo-3,4-dihydro-1H-quinolin-6-yl)thiazole-5-carboxamide] | ≥ 100 µM | 1 to 10 µM |
| O=C1CCc2cc(OCCN(CCO)Cc3cccnc3)ccc2N1 [ALDHI-3005, 6-[2-[2-hydroxyethyl(3-pyridylmethyl)amino]ethoxy]-3,4-dihydro-1H-quinolin-2-one] | ≥ 100 µM | 10 to 100 µM |
| CN(CCOc1ccc2c(c1)CCC(=O)N2)Cc1cccc(F)c1 [ALDHI-3001, 6-[2-[(3-fluorophenyl)methyl-methyl-amino]ethoxy]-3,4-dihydro-1H-quinolin-2-one] | ≥ 100 µM | 1 to 10 µM |
